Results from patent US11040976B2, “Substrate selective inhibitors of insulin-degrading enzyme (IDE) and uses thereof” (President and Fellows of Harvard College, priority 2015, dated 2021).

Legend:
[1] = target: T1, recombinant human IDE42-1019 (Homo sapiens, UniProt P14735); test: Protease assay with fluorogenic peptide substrate Mca-[…](Dnp)-OH; format: biochemical; details: for IC50: fluorogenic peptide Mca-RPPGFSAFK(Dnp)-OH, apparent IC50 for compounds with submaximal inhibition, read-out: IC50 (μM) Proteolysis
T1 construct: recombinant human IDE42-1019 (R&D Systems); purchased R&D Systems
T1 sequence (P14735 42-1019): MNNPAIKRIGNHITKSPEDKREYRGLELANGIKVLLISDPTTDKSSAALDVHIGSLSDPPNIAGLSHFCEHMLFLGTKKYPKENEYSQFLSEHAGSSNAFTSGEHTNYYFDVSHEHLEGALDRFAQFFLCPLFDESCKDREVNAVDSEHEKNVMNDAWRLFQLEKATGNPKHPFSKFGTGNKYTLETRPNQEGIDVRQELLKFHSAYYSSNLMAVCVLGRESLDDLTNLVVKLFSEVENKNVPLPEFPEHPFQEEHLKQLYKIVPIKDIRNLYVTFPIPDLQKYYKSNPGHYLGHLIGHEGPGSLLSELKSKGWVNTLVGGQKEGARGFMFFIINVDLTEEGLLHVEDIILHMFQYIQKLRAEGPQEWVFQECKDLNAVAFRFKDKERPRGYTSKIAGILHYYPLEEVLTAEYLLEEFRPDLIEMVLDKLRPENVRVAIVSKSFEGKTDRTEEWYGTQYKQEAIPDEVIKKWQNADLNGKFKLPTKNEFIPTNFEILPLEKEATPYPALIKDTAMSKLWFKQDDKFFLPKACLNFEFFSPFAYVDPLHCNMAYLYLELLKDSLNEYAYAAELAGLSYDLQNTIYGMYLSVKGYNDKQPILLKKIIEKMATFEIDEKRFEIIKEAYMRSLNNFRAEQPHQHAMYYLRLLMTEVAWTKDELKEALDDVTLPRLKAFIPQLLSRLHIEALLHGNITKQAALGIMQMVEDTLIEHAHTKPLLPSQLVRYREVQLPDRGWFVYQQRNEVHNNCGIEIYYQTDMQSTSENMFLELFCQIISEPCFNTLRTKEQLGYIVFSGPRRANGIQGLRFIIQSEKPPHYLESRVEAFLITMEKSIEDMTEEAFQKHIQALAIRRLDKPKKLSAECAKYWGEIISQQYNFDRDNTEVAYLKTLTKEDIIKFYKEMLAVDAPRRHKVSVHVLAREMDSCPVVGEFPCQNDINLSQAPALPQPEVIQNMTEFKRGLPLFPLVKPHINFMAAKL

[2] = target: T2, Human N-His6-IDE42-1019 (E. coli expressed) (Homo sapiens, UniProt P14735); test: Fluorescence anisotropy high-throughput screening assay (displacement of probe FL-6b); format: binding; details: final compound concentration 20 μM (6bK control 1 μM); values without asterisk
T2 construct: Human N-His6-IDE42-1019 (E. coli expressed); made in house; host or cells: E. coli (Rosetta 2 (DE3) pLysS, plasmid pTrcHis-A)
T2 sequence (P14735 42-1019): T1 sequence (P14735 42-1019)
In short: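 Compounds at 20 μM final were added to 0.5 μM enzyme with fluorescein-labelled macrocycle probe ([…]) in 50 mM Tris pH 8.0, 1 M NaCl, 25 °C. Anisotropy (ex 492/em 523 nm) was read after 30 min in duplicate. Z-scores were calculated against plate DMSO controls.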

SMILES | IC50 [1] [µM] | Emax ([1]; read-out: Imax (%) Proteolysis (inhibition maximum), fluorogenic peptide Mca-RPPGFSAFK(Dnp)-OH, plateau at high inhibitor concentration) [%] | Average Z-score (Fluorescence anisotropy) [2]
NCCCC[C@@H]1NC(=O)/C=C/C(=O)N[C@H](C(N)=O)CCCCNC(=O)[C@@H](Cc2ccc(C(=O)c3ccccc3)cc2)NC(=O)[C@H](CC2CCCCC2)NC1=O [6bK, reference compound] | 0.05 | 100 | −24.52
Cc1cccc(-c2ccc([C@@H]3[C@@H](CO)N4CCCCN(S(=O)(=O)c5ccccc5C)C[C@@H]34)cc2)c1 [compound 297] | 0.25 | – | −20.26
